This assay deals with Male Wistar strain rats. Description: serum calcium lowering effect in rats. Format: in vivo, rat. To be noted: for Change in serum Ca level: 4.5 μg/rat subcutaneously, mean of 4 rats. On the procedure: The biological activities of HPCT and HPCT Cp(1-3S purified by the above-mentioned procedure were assayed using the serum calcium lowering effect in rats as an indicator.
Male Wistar strain rats weighing 300 to 350 grams were fasted overnight and used. Each animal was secured in supine position and under ether anesthesia, a polyethylene tube (Intramedic® PE-50, Clay Adams) filled with heparin sodium injection J. P. (Japan-Upjohn) was inserted into the femoral artery of the right hind leg. The rat was fixed in a Boleman cage, and 30 minutes after awakening of the animal, 0.5 ml of the blood was withdrawn through the above polyethylene tube inserted into the femoral artery into a polyethylene centrifugal tube containing 50 units of heparin sodium. Immediately thereafter 0.2 ml of the under-mentioned physiological saline, HPCT. HPCT.Cp(1-33) or swine calcitonin solution was administered subcutaneously at the back of the animal. Then, 1, 2, 4 and 6 hours after the administration, 0.5 ml each of the blood was taken through the above-mentioned polyethylene tube. The blood thus taken was promptly centrifuged on an Eppendorf microcentrifuge (Eppendorf 5414) at 13,000 r.p.m. for 1 minute and the supernatant was used as serum fraction.
The blood calcium level was measured by the o-cresolphthalein complexon method using a commercial calcium assay kit RM117-K (Ca SET) (Yatron). Fifty μl of the serum was taken in a test tube and stirred with 0.5 ml of the color reagent containing o-cresolphthalein complexon and 8-hydroxyquinoline (RM117-2). Then, 5.0 ml of monoethanolamine borate buffer (RM117-1) was added and stirred. Within 90 minutes thereafter, the absorbance was measured with a self-recording spectrophotometer (Hitachi 320) at the wavelength of 575 mu. The concentration of calcium was calculated from this absorbance value.
The methods used in the preparation of the physiological saline solution, HPCT solution, HPCT. Cp(1-3S) solution and swine calcitonin solution employed are as follows.
a) Physiological saline solution: Bovine serum albumin (Sigma®) was dissolved in physiological saline J. P. (Ohtsuka Pharmaceutical Co.) at room temperature to the albumin concentration of 0.1%.
b) HPCT solution: HPCT was diluted with the above-mentioned physiological saline solution containing 0.1% of albumin to the HPCT concentration of 4.5 μg/0.2 ml.
c) HPCT Cp(1-33) solution: HPCT Cp(1-33) was diluted with the above-mentioned physiological saline solution containing 0.1% of albumine to the HPCT Cp(1-33) concentration of 20 μg/0.2 ml.
d) Swine calcitonin solution: Calcital® for Injection (Yamanouchi Pharmaceutical Co.) containing 160 I.U. of calcitonin per vial was dissolved in 40 ml of a vehicle containing 16% of purified gelatin and 0.5% phenol J. P. and the solution was diluted with the above-mentioned physiological saline solution containing 0.1% of albumin. This dilution contained 0.2 or 1 I.U. of swine calcitonin per 0.2 ml.

Experimental findings from patent US5252482A, “Precursor of a C-terminal amidated calcitonin” (Suntory Limited, priority 1982, dated 1993) are described below.

Bridge positions count the residues as written; N and C are the ends. Peptide text beside a SMILES is read from it.

For the compound `CC[C@H](C)[C@H](NC(=O)[C@H](C)NC(=O)[C@@H](NC(=O)[C@H](CCC(N)=O)NC(=O)[C@@H]1CCCN1C(=O)[C@H](Cc1ccccc1)NC(=O)[C@@H](NC(=O)[C@H](Cc1c[nH]cn1)NC(=O)[C@H](Cc1ccccc1)NC(=O)[C@H](CCCCN)NC(=O)[C@H](CC(N)=O)NC(=O)[C@H](Cc1ccccc1)NC(=O)[C@H](CC(=O)O)NC(=O)[C@H](CCC(N)=O)NC(=O)[C@@H](NC(=O)[C@H](Cc1ccc(O)cc1)NC(=O)[C@@H](NC(=O)CNC(=O)[C@H](CC(C)C)NC(=O)[C@@H](NC(=O)[C@@H]1CSSC[C@H](N)C(=O)NCC(=O)N[C@@H](CC(N)=O)C(=O)N[C@@H](CC(C)C)C(=O)N[C@@H](CO)C(=O)N[C@@H]([C@@H](C)O)C(=O)N1)C(C)C)[C@@H](C)O)[C@@H](C)O)[C@@H](C)O)[C@@H](C)O)C(=O)NCC(=O)N[C@H](C(=O)NCC(=O)N[C@@H](C)C(=O)N1CCC[C@H]1C(=O)NCC(=O)N[C@@H](CCCCN)C(=O)N[C@@H](CCCCN)C(=O)N[C@@H](CCCNC(=N)N)C(=O)O)C(C)C` [HPCT] (H-CGNLSTCVLGTYTQDFNKFHTFPQTAIGVGAPGKKR-OH; disulfide 1-7), for the setting “4.5 μg of HPCT, rat, subcutaneous, serum calcium time course”, the “activity equivalent in swine calcitonin” value turned out to be 0.2 I.U. Moreover, the calcitonin activity result (calcium level in the rat blood) is recorded as “markedly reducing the calcium level in the rat blood”. Also, the “physiological activity compared with swine calcitonin” value (rat serum calcium, Table 2, not compared in an equal amount) is reported as “stronger physiological activity as compared with swine calcitonin”. For the same compound, the serum calcium level entry (rat, 4.5 μg subcutaneously, 1 and 2 hours after the administration) is “dropped with statistical significance”. The “Change in serum Ca level” value is -0.85 mg/dL (rat, 1 hour after administration); -0.64 mg/dL (rat, 2 hours); -0.47 mg/dL (rat, 3 hours); -0.63 mg/dL (rat, 4 hours).
